Experimental data: a melting point compilation (Tetko et al.; mined from patent text by program, amines drawn as free bases though some values may be those of a salt)

SMILES	melting point
CCCCc1ccc(-c2nc(F)c(-c3ccc(OC)cc3)o2)cc1	72 °C
COc1cc(CO)ccc1OCc1csc(N2CCOCC2)n1	94 to 95 °C
CCN1C(=O)C(C)(C)C(=O)N(C)c2cc(CN(CCn3ccc4oc(C)cc4c3=O)Cc3cc(C)n(C)n3)ccc21	138 to 139 °C
CCCCOC1OC(CO)C(O)(N(CC)C(=O)N(CCCl)N=O)C(O)C1O (configuration not stated)	75 to 77 °C
Cc1[nH]c(C)c(-c2ccc(Oc3ccc(OC(F)(F)F)cc3)cc2)c(=O)c1Cl	298 to 302 °C
CN1CCc2cc[nH]c2C(c2ccccc2)C1 (configuration not stated)	90 to 91 °C
COc1nc(C)nc(NC(=O)NS(=O)(=O)c2cccc3c2OS(=O)(=O)C(C)=C3)n1	203 to 205 °C
FC(F)C(F)(F)Sc1nc(-c2ccccc2)c(-c2ccccc2)[nH]1	212 to 213 °C
Cn1c2c(c3cc(Cl)ccc31)CCC(C(=O)O)C2 (configuration not stated)	259 to 260 °C
COCCOc1cccc2c(Nc3ccccc3C)c(C(=O)C(C)C)cnc12	68 to 70 °C
CCOC(=O)c1cccc2nc(OC)n(Cc3ccc(-c4ccccc4C#N)cc3)c12	160 to 161 °C
N#CC1c2ccccc2Cc2ccccc21	106 to 108 °C
CCOCc1cnn2c(-c3cccc(C(F)(F)F)c3)ccnc12	110 to 111 °C
Cn1cc(-c2ccccc2)c(=O)c(-c2ccc(Br)cc2)c1	172 °C
CCN1CCN(C(C(=O)O)c2ccc(Nc3nc(-c4cccc(NC(=O)c5cc6c(s5)CCCCC6)c4C)cn(C)c3=O)cc2)CC1 (configuration not stated)	168 to 170 °C
CN(C)CCSCc1c(CCN(C)C)[nH]c2ccccc12	52 to 54 °C
CCc1nnc2c(Cl)nc3ccc(Cl)cc3n12	> 250 °C
N#CC(N)c1ccc(F)cc1F (configuration not stated)	52 °C
O=c1[nH]c(=O)n(C2CC(OCc3cccc4ccccc34)C(CO)O2)cc1F (configuration not stated)	159 to 160 °C
CCn1c2ccc(C(=O)CC(C)=O)cc2c2cc(C(=O)c3ccc(F)cc3C)ccc21	132 °C
CCCCC(=O)Nc1nc2ccc(Cl)cc2nc1NC(=O)CCCC	171 to 173 °C
CCOc1ccc2c(c1)C(=O)OC2C(Cl)(Cl)Cl (configuration not stated)	112 to 114 °C
O=C1N(c2ccc(Cl)cc2Cl)Cc2cnc(Nc3ccccc3)nc2N1c1cccc(CCO)c1	213 to 217 °C
Cc1sc(N)c(C(=O)c2ccco2)c1C	95 to 97 °C

SMILES	melting point
[N-]=[N+]=NC1CCc2ccccc2NC1=O (configuration not stated)	142 to 145 °C
CC(Oc1ccc(Oc2ncc(C(F)(F)F)cc2Cl)cc1)C(=O)Nc1ccc(OC(F)(F)F)cc1 (configuration not stated)	140 to 141 °C
CCn1c(=O)c(-c2c(Cl)cccc2Cl)cc2cnc(NCCCN3CCN(C)CC3)nc21	126 to 128 °C
O=C(O)c1ccc(-c2ccc3cc(OCc4ccc(F)cc4)c(C45CC6CC(CC(C6)C4)C5)cc3c2)cc1O	240 to 241 °C
O=C(c1ccccc1)n1c(=O)c(C(F)(F)F)cn(C2CC(O)C(CO)O2)c1=O (configuration not stated)	144 to 146 °C
O=C(O)CCCOc1ccc(C2=CCCCCC2)cc1	87 to 88 °C
Cc1c(CC(=O)O)c2ccccc2c(=O)n1Cc1ccc(Cl)c(Cl)c1	218 to 220 °C
O=c1[nH]nc(-c2ccc(OC3CCN(C4CCC4)CC3)cc2)c2c1CCC2	210 to 213 °C
CCCN(c1cccc(-c2ccnc3c([N+](=O)[O-])cnn23)c1)S(=O)(=O)c1ccccc1	154 to 156 °C
COc1cc(Cc2cnc(N)nc2N)cc2c1OC(C)(C)C=C2Cl	221 to 222 °C
CNN1c2c(cc(Oc3ccc(F)cc3F)c(=O)n2NC)C=NC1S(=O)Cc1ccccc1 (configuration not stated)	80.5 to 89.9 °C
COC(=O)c1c(C(F)(F)C(F)(F)F)[nH]c(C(F)(F)C(F)(F)F)c1C(=O)OC	68 to 71 °C
Nc1nc(N2CCC2)c2nc[nH]c2n1	280 °C
CCc1cc(Cl)cnc1N	67 to 68 °C
CCC1=C(C#N)C(c2cccc(C#N)c2Cl)c2c[nH]nc2N1 (configuration not stated)	> 300 °C
CC(C)(C(N)=O)c1ccc(OCc2ccccc2)cc1	150 to 151 °C
COC(=O)c1nn(Cc2cccc(NC(=O)OC(C)(C)C)c2)c2c1CCc1cc(OCc3cncnc3)ccc1-2	221 to 222 °C
FC(F)(F)c1ccnc(N2CCN(Cc3n[nH]c4ccccc34)CC2)c1	99 to 100 °C
N#Cc1cn(-c2c(Cl)cc(C(F)(F)F)cc2Cl)c(N)c1I	130 to 132 °C
O=C(Nc1nccs1)C(CC1CCCC1)c1ccc(-c2cccnc2)cc1 (configuration not stated)	48 to 52 °C
Cc1c(N2CCc3ccccc3C2)c(F)cn2c(=O)c(C(=O)O)cc(C3CC3)c12	214 to 215 °C
N#Cc1c[nH]cc1-c1ccccc1	123 to 125 °C
CC(=O)SCC(=O)Nc1ccc(C(=O)O)cc1	233 to 234 °C
CNC(=S)NN=C(CCCOC(=O)Nc1ccccc1)c1ccccc1	155 to 157 °C

SMILES	melting point
Oc1cccc(CC2c3ccccc3CCc3ccccc32)c1	76.6 °C
CC(C)(C)N1C(=O)OC2(CCN(Cc3ccccc3)CC2)C1(C)O (configuration not stated)	179 to 181 °C
CCCCCCCCCCCCCCCCCCOc1cc(OCCOc2ccc3ccccc3c2)cc(C(=O)OCc2ccccc2)c1	62 to 65 °C
O=C(O)CCC(=O)c1cccc(C(F)(F)F)c1	80 to 82 °C
Clc1ccc2c(c1)CN1C(=Nc3cccnc3)SC[C@@H]1C2	125 °C
CCc1cc(C(C)=O)c(O)cc1OCCCCCN	75 to 76 °C
CCOC(=O)CC(NC(=O)c1ccc(Cl)cc1)C(=O)c1cccs1 (configuration not stated)	112 to 113 °C
N=C(N)c1ccc2cc(OC(=O)[C@H]3CC[C@H](CN)CC3)ccc2c1	147 °C
Cc1cccc(C(=O)C2=C(O)C(=O)N(c3ccc(C)nn3)C2c2ccc(C(C)C)cc2)c1 (configuration not stated)	245 to 250 °C
COC(=O)c1ccc2ccc(OC)cc2c1O	80 to 83 °C
CCOC(=O)C1(C)Sc2ccccc2NC1=O (configuration not stated)	109 to 111 °C
Cc1cc(C(=O)Nc2c(C)cccc2O)c(Br)s1	164 to 167 °C
Cc1nc(-c2ccc(C#N)cc2)sc1C(=O)N1CC(O)O[C@@](Cn2cncn2)(c2ccc(F)cc2F)[C@H]1C (some centres not stated)	225 to 228 °C
COC(=O)CCC#Cc1cc(Cl)ccc1NS(=O)(=O)c1ccc2nc(NC(C)=O)sc2c1	85 °C
CCCc1c(OCCCCCOc2coc(CO)cc2=O)ccc(C(C)=O)c1O	94 to 95 °C
CCCOC(=O)C(=C1SC=CS1)S(=O)(=O)C(C)C	78 to 79 °C
C[C@@H]1OC(=O)C[C@H]2O[C@@H]12	51 to 52 °C
Cc1ccc(S(=O)(=O)NC(CN)C(=O)O)cc1 (configuration not stated)	225 to 226 °C
Cc1[nH]c2ccc(F)cc2c1C(=O)NC1CCN(CCc2ccccc2)CC1	159 to 162 °C
Cc1c(C)c2ccc(OCCCN3CCC(N)CC3)cc2oc1=O	92 to 94 °C
O=C(N[C@H](Cc1ccccc1)[C@H](O)C(=O)O)OCc1ccccc1	154 to 155 °C
O=C(O)CCCCCCCCCCCCO	77 to 78 °C
CC(C)(C)OC(=O)N1CCc2cc3ccccc3n2CC1	129 to 132 °C
CON=C1CN(c2c(F)c(N)c3c(=O)c(C(=O)O)cn(C4CC4)c3c2F)CC12CN(C(=O)OC(C)(C)C)C2	256 to 257 °C
